Results from patent publication US9284276B2, “N-ethyl-N-phenyl-1,2-dihydro-4,5-di-hydroxy-1-methyl-2-oxo-3-quinolinecarboxamide, preparation and uses thereof” (TEVA PHARMACEUTICAL INDUSTRIES, LTD., priority 2012, dated 2016).

Experiments:
[1] = Stability of 5-HLAQ in solvents; format: physicochemical; conditions: in most of the organic solvents as well as in aqueous acidic conditions
Excerpt: N-Ethyl-N-phenyl-1,2-dihydro-4,5-di-hydroxy-1-methyl-2-oxo-3-quinolinecarboxamide (5-HLAQ) is not stable in most of the organic solvents as well as in aqueous acidic conditions. Therefore common purification methods were extremely difficult. The di-acetate derivative Compound 3 is an elegant way to purify the material followed only by basic hydrolysis, acidic precipitation and rapid filtration.

[2] = Formation of 5-HLAQ on light exposure of laquinimod, determined by HPLC; format: physicochemical
Protocol: Various forms of laquinimod were exposed to light, as specified below. Presence of 5-HLAQ was determined using HPLC.

[3] = system: acute experimental autoimmune encephalomyelitis (aEAE) model; conditions: U.S. Pat. No. 6,077,851; cited from earlier work
[4] = system: active MRI lesions in relapsing MS; conditions: Polman et al. 2005; cited from earlier work
[5] = Influence of blister pack material on photo-degradation of laquinimod 0.6 mg capsules; format: physicochemical
Protocol: The goal of this study is to examine the photo-degradation of laquinimod sodium capsules, 0.6 mg, packed in blisters of various materials.
One batch of laquinimod sodium capsules, 0.6 mg/capsule was packed into four different types of blisters: PVC/AC/PVDC/PVLE/P058 504 142 (transparent), PVC/PE-EVOH/AC (A 300) G03 140 MM (transparent), A-/PVC/PE-EVOH/AC-PC (opaque), and KPMAX WH (opaque). Control was the same batch not exposed to sunlight in HDPE 50 cc DUMA™ bottle.

[6] = in vivo; cited from earlier work

CCN(C(=O)c1c(O)c2c(O)cccc2n(C)c1=O)c1ccccc1 [Compound 5-HLAQ, N-Ethyl-N-phenyl-1,2-dihydro-4,5-di-hydroxy-1-methyl-2-oxo-3-quinolinecarboxamide]
Stability in solvents [1]: not stable

CCN(C(=O)c1c(O)c2c(Cl)cccc2n(C)c1=O)c1ccccc1 [Laquinimod, N-ethyl-N-phenyl-1,2-dihydro-4-hydroxy-5-chloro-1-methyl-2-oxoquinoline-3-carboxamide]
Presence of 5-HLAQ (wt %) ([2]; Light chamber 310-400 nm (~8 hrs.), 0.05 mg/ml in 0.02M HCl): 1.5 wt % | Presence of 5-HLAQ (wt %) ([2]; Light chamber 310-400 nm (~8 hrs.), 0.05 mg/ml in 0.02M NaOH): 71 wt % | Presence of 5-HLAQ (wt %) ([2]; Light chamber 310-400 nm (~8 hrs.), 1 mg/ml in 0.02M NaOH, relative to laquinimod before photodegradation): 33 wt % | Presence of 5-HLAQ (wt %) ([2]; Sunlight cabinet (5 minutes), 0.09 mg/ml aqueous solution): 11.8 wt % | Efficacy in aEAE model [3]: effective | Development of active MRI lesions [4]: can reduce development of active MRI lesions | Sensitivity to light [5]: sensitive to light

CCN(C(=O)c1c(O)c2c(Cl)cccc2n(C)c1=O)c1ccccc1 [Laquinimod sodium]
Oral bioavailability [6]: high
